Assay [1] concerns CD mice. The assay is described as follows: Tail-flick test, morphine-induced analgesic tolerance. In kind it is in vivo, mouse. The conditions noted are these: morphine 30 mg/kg IP twice a day. On the procedure:
All procedures were conducted in adherence to the European Community Council Directive for Care and Use of Laboratory Animals.
Mice were divided into 6 groups. Group 1 (n=8) received drug vehicles (veh/veh). […] Animals were treated twice daily (between 9:00 and 10:00 a.m. and 9:00 and 10:00 p.m.).
Morphine hydrochloride was purchased from Salars (Milano, Italy). Morphine (30 mg/kg) was dissolved in NaCl […] and was injected intraperitoneally (IP) twice a day at the indicated doses in a volume of 0.2 ml per mice. […] It was dissolved in distilled water and was administered per o.s. at the doses of 10 mg/kg and 30 mg/kg in a volume of 0.6 ml per mice.
Two different tests were used to monitor analgesic responses. The tail-flick test was performed 45 min after the morning injection of morphine, and the tail-immersion test was performed 45 min after the evening injection of morphine.
For the tail-flick test, each mouse was gently restrained in a soft tissue pocket, and the tail (1 cm from the tip) was exposed to a hot light beam. Latency for tail-flick was measured with a 6 seconds cut-off time. For the tail-immersion test, each mouse was restrained in a soft tissue pocket, and the distal half of the tail dipped into a water bath set at 52 C°. Latency for removing the tail from the hot water was measured with a 10 seconds cut-off time.
Background: Thermal pain tests record how soon the animal reacts.

In assay [2] the test system is CD mice. The conditions noted are these: morphine 30 mg/kg IP twice a day.
Description: Morphine hydrochloride was purchased from Salars (Milano, Italy). Morphine (30 mg/kg) was dissolved in NaCl 9% and was injected intraperitoneally (IP) twice a day at the indicated doses in a volume of 0.2 ml per mice.

On to `CN1CC[C@]23c4c5ccc(O)c4O[C@H]2[C@@H](O)C=C[C@H]3[C@H]1C5` [morphine], for which the “time to tail-flick on test days 7 and 9” value in the assay with CD mice [1] is recorded as “non significant difference from controls”. The “time to tail-flick on day 1, 3 and 5” value in the assay with CD mice [1] (p<0.01) is “significantly increased”. Moreover, the “tail-immersion analgesic effect on test day 9” value with CD mice [2] was “marginally significant”. For the same compound, in the assay on CD mice [2] (p<0.01), the “tail-immersion latency on day 1, 3, 5, and 7” value is on record as “significantly increased”.

These data come from patent publication US20130296347A1, “Compositions and Methods for Prophylaxis and Treatment of Addictions” (Omeros Corporation, priority 2007, published 2013).
